Consider five substances from patent US20080286350A1, “Formulation of Multivalent Antibody Constructs and Use of Same for Cancer Therapy” (BC CANCER AGENCY, priority 2004, published 2008).

Common to all, as to format: cell-based
One data set deals with Ramos cells. In words: MTT cell viability assay, Ramos cells, 48 hours (Example 1). For orientation: Tetrazolium assays rely on reduction of a dye to a coloured formazan, in cell work by metabolically active cells.
In data set [1] the test system is Ramos (Burkitt's lymphoma) cell line. In words: Cell viability assay, fraction of cells affected (fa), Ramos. Here is the method:
(§1) FIGS. 5(a)-(d) are a series of bar graphs summarizing results for in vitro treatment of cancer cell lines with free bivalent or liposomal multivalent Ab constructs. […] Fraction of cells affected (fa) was calculated as follows: fa=1−fu, where fu was the fraction of remaining viable cells calculated as the ratio of the absorbance readings from the MTT assay for treated and untreated groups. Data represent mean ±S.E.M. from 3 independent experiments. * and ^# denote P<0.05 as compared to the free Ab treatment (ANOVA and Scheffe test for post-hoc comparisons).
(§2) Cells (3,500 cells/well for LCC6^HER2 and MCF7^HER2, and 20-50,000 cells/well for Ramos and 20,000 cells/well for Z-138) were seeded in 96-well plates. In the case of LCC6^HER2 and MCF7^HER2 cells, treatment was added after an overnight incubation to allow cell adherence to plates. In the case of Ramos and Z-138 cells, treatment was added on the same day after seeding. Cell viability was determined using 3-(4,5-dimethylthiazol-2-yl)-2,5-diphenyltetrazolium bromide (MTT) as previously described ^28 or Alamar Blue added in 10 μL/well with an 18-h incubation before reading fluorescence in a Fluorstar (v 1.2) plate reader (BMG Labtechnologies, Offenburg, Germany).
(§3) For rituximab, testing was conducted in a Burkitt's lymphoma cell line, Ramos (FIG. 5c), and a mantle cell lymphoma cell line, Z-138 (FIG. 5d).

The test system of data set [2] is phosphorylated p65NF-κB, Bcl-xL, Bcl-2, Bax, p-Akt. Briefly: Western blot analyses of cell survival molecules, Z-138. The note with it: 15 μg/mL, 3 days. Here is the method:
(§4) FIGS. 6(a)-6(b) are bar graphs and Western blot analyses showing modulation of cancer cell survival pathways by multivalent liposomal Ab constructs. […] The concentration of trastuzumab was 200 μg/mL. (b) Representative cell cycle analysis, DAPI staining and Western blot analyses of Z-138 cells after exposure to free or liposomal rituximab for 3 days. The concentration of rituximab was 15 μg/mL. […] For DAPI staining, yellow arrows indicate apoptotic morphology of DNA condensation or fragmentation associated with Z-138 cells exposed to various treatments. The scale bar is equivalent to 50 μm, and all images are shown at the same magnification.
The following antibodies were used in this study: anti-p-HER2-Tyr-1248/Tyr-1173; anti-HER2; anti-p-Akt-Ser-473 and anti-Akt (all were rabbit polyclonal, New England Biolabs) and anti-human β-actin (mouse monoclonal, Sigma). The secondary antibody was horseradish peroxidase-conjugated anti-mouse or anti-rabbit IgG (Promega, Madison, Wis.). Proteins were detected by enhanced chemiluminescence (Amersham Pharmacia Biotech, Buckinghamshire, England), and visualized after exposure to Kodak autoradiography film. Equivalent amounts of protein (30 μg/lane determined by Bradford assay) were resolved by 12% SDS-polyacrylamide pre-made gels (Bio-Rad).
For orientation: In western blotting, separated proteins are transferred to a membrane and probed.

The next data set relates to Z-138 cells. In words: Cell cycle analysis and DAPI staining, Z-138. The note with it: 15 μg/mL, 3 days. Here is the method: as §4
Cells were harvested after treatment and fixed in cold 70% ethanol adjusted to 1×10^6 cells/mL and 2×10^6 cells/mL for cell cycle analyses and DAPI staining, respectively. In the case of cell cycle analyses, cells were stained in propidium iodide (PI) buffer [50 μg/mL PI, 1 mg/mL RNase A (Sigma), and 0.1% Triton X-100 in PBS] at 37° C. for 15 min as previously described ^28. Cells were then chilled on ice for 1 h and analyzed on a FACSCalibur flow cytometer (Becton Dickinson, San Jose, Calif.) with 20,000 events collected for each sample. In the case of DAPI staining, cells were incubated in DAPI staining solution (0.1 μg/mL DAPI, 1 mg/mL RNase A and 0.1% Triton X-100 in PBS) for 15 min, followed by chilling on ice for 30 min. Cells were cytospun onto a glass slide, and viewed with a Leica DMLB fluorescence microscope. Images were captured with a Retiga 1300i digital camera and analyzed by the computer software OpenLab 3.5.1 (Improvision).

Data set [3] has as its system Z-138 (mantle cell lymphoma) cell line. In words: Cell viability assay, fraction of cells affected (fa), Z-138. The protocol:
as §1, §2, §3

In another data set the test system is caspase 3/7. In words: Caspase 3/7 activity, Z-138. The note with it: Z-138 cells, data not shown.
Where [4] appears, read: 3 days, 10% serum, range of Ab concentrations tested.

For the substance “Lipo-RTX 48: Rituximab bound to liposomes at antibody-to-lipid ratio of 48 μg antibody/μmol lipid”, in the data set on Ramos cells, the “potency / cytotoxic activity on cell viability (MTT assay), in words” value (“potency / cytotoxic activity” for short) is “superior potency to free Rituximab”.

Turning to “Lipo-RTX 59: Rituximab bound to liposomes at antibody-to-lipid ratio of 59 μg antibody/μmol lipid”, in the data set with Ramos cells, the “potency / cytotoxic activity” value is listed as “superior potency to free Rituximab”.

In the case of “cross-linked rituximab: Free rituximab cross-linked by an anti-human IgG F(ab)′ (goat F(ab′)2 anti-human IgG, 50 μg/mL), included as a control”, the “activity (fa) compared to liposomal rituximab, in words” value in data set [1] (Ab concentrations above 10 μg/mL, P<0.05) is “more effective than liposomal rituximab”. Besides, in data set [2], the “expression level of p-Akt” value is on record as “capable of reducing”; the “expression levels of phosphorylated p65NF-κB and downstream Bcl-xL” value (“expression levels” for short) is reported as “reduced”. In addition, the “apoptosis: percentage of cells in sub-G1/G0 phase, morphology (DAPI)” value (“apoptosis: percentage … morphology (DAPI)” below) in the data set on Z-138 cells is reported as “increases”.

Turning to “free rituximab: a therapeutic antibody targeting CD20; anti CD20 monoclonal antibody”, in the data set on Ramos cells, the “potency / cytotoxic activity” value is given as “minimal or no cytotoxic activity”. Besides, the “expression levels” value in data set [2] was “not different from untreated cells”. Besides, the “apoptosis: percentage … morphology (DAPI)” value in the data set with Z-138 cells is “not different from untreated cells”.

In the case of “liposomal rituximab: rituximab conjugated to DSPC/CHOL/DSPE-PEG2000/DSPE-PEG2000-MAL liposomes, Ab-to-lipid ratio 50-70 μg/μmol”, the “activity (fa) compared to free rituximab, in words” value in data set [1] (setting [4]) is “significantly more effective than the free, bivalent form”; in data set [3] (setting [4]) it was “significantly more effective than the free, bivalent form”. Further, the “expression levels” value in data set [2] was “reduced”. Moreover, the “activity (fa) compared to cross-linked rituximab, in words” value in data set [3] (P>0.05) was “not significantly different from that of cross-linked rituximab”. For the same substance, the “apoptosis: percentage … morphology (DAPI)” value in the data set with Z-138 cells is “increases”. Further, the “increase in caspase 3/7 activity” value in the data set on caspase 3/7 was “not”.
